The text below walks through data of ChEMBL document CHEMBL3785086, “Design and synthesis of natural product derivatives with selective and improved cytotoxicity based on a sesquiterpene scaffold” (Bioorg Med Chem Lett, 2016).

A short description of assay [1]: Cytotoxicity against human BGC823 cells assessed as cell proliferation after 24 hrs by CCK-8 assay. The following applies: BGC-823, 24 h. The format is functional, cell-based. (Tetrazolium assays rely on reduction of a dye to a coloured formazan, in cell work by metabolically active cells.)
Assay [2] can be described thus: Cytotoxicity against human T24 cells assessed as cell proliferation after 24 hrs by CCK-8 assay. The following applies: T-24, 24 h. The format is functional, cell-based.
A further assay deals with MCF7. The assay can be described thus: Cytotoxicity against human MCF7 cells assessed as cell proliferation after 24 hrs by CCK-8 assay. The format is functional, cell-based. Particulars: MCF7, 24 h.
Assay [3] in a line: Cytotoxicity against mouse NIH/3T3 cells assessed as cell proliferation after 24 hrs by CCK-8 assay. The format is cell-based. Particulars: NIH3T3, 24 h.
The subject of another assay is A549. The assay can be described thus: Cytotoxicity against human A549 cells assessed as cell proliferation after 24 hrs by CCK-8 assay. The format is functional, cell-based. The following applies: A549, 24 h.
Assay [4] in a line: Cytotoxicity against human HO8910 cells assessed as cell proliferation after 24 hrs by CCK-8 assay. The format is functional, cell-based. The following applies: HO-8910, 24 h.
The subject of another assay is HeLa. The experiment in a line: Cytotoxicity against human HeLa cells assessed as cell proliferation after 24 hrs by CCK-8 assay. The format is functional, cell-based.

By IC50 is commonly meant the concentration needed to halve the response being measured. For the compound `C=C1CCC(c2coc(/C=C(\C)C(N)=O)c2)CC1`, the 50% inhibitory concentration (IC50) is over 50 µM in assay [1]; over 50 µM in assay [2]; 8.47 µM in the assay on MCF7; over 50 µM in assay [3]; over 50 µM in the assay on A549; 18 µM in assay [4]. Further, in the assay on HeLa, the IC50 came to 5.01 µM.

As for `C/C(=C\c1cc(-c2ccc3c(c2)OCO3)cs1)C(N)=O`, the IC50 in assay [1] was over 50 µM; in assay [2], over 50 µM; with MCF7, 3.05 µM; in assay [3], over 50 µM; in the assay on A549, over 50 µM; in assay [4], over 50 µM. In the assay on HeLa, the IC50 is over 50 µM.

Turning to `C/C(=C\c1ccc(-c2ccc(F)cc2)o1)C(N)=O`, the IC50 in assay [1] was 0.94 µM; in assay [2], 3.32 µM; in the assay on MCF7, 0.97 µM; in assay [3], 0.96 µM; with A549, 1.65 µM; in assay [4], 0.99 µM. Also, the half-maximal inhibitory concentration (IC50) with HeLa was 2.03 µM.

For `C/C(=C\c1ccc(-c2ccc(C)cc2)o1)C(N)=O`, the IC50 in assay [1] was over 50 µM; in assay [2], over 50 µM; with MCF7, over 50 µM; in assay [3] it was over 50 µM; with A549, over 50 µM; in assay [4] it was 1.66 µM. Besides, the IC50 with HeLa amounted to 4.59 µM.

On to `C/C(=C\c1cc(C2=CCCCC2)co1)C(N)=O`, for which the IC50 was over 50 µM in assay [1]; over 50 µM in assay [2]; 6.58 µM in the assay with MCF7; over 50 µM in assay [3]; over 50 µM in the assay on A549; over 50 µM in assay [4]. The IC50 with HeLa is over 50 µM.

`C/C(=C\c1cc(-c2ccc(Cl)cc2)cs1)C(N)=O`: the 50% inhibitory concentration (IC50) in assay [1] was over 50 µM; in assay [2], over 50 µM; with MCF7 it was 17.1 µM; in assay [3] it was over 50 µM; with A549 it was over 50 µM; in assay [4], over 50 µM. Further, the IC50 in the assay with HeLa is over 50 µM.

Regarding `C/C(=C\c1nc(-c2ccc(F)cc2)cs1)C(N)=O`, the IC50 in assay [1] is over 50 µM; in assay [2], over 50 µM; in the assay on MCF7, 3.3 µM; in assay [3], over 50 µM; with A549, 13.2 µM; in assay [4], 4.45 µM. Also, the IC50 with HeLa turned out to be 5.4 µM.

Consider `C/C(=C\c1cc(-c2ccc(S(C)(=O)=O)cc2)cs1)C(N)=O`, for which the IC50 (in assay [1]; in assay [2]; in the assay on MCF7; in assay [3]; in the assay with A549; in assay [4]) was over 50 µM throughout. Also, in the assay on HeLa, the IC50 was over 50 µM.

On to `C/C(=C\c1cc(-c2ccccc2)co1)C(N)=O`, for which the IC50 in assay [1] is over 50 µM; in assay [2] it was over 50 µM; in the assay with MCF7, 3.34 µM; in assay [3] it was over 50 µM; in the assay with A549, over 50 µM; in assay [4], 42.4 µM. In addition, the IC50 in the assay with HeLa was determined as 3.28 µM.

Regarding `C/C(=C\c1cc(-c2ccc(C)cc2)cs1)C(N)=O`, the concentration for half-maximal inhibition (IC50) (in assay [1]; in assay [2]; in the assay on MCF7; in assay [3]; in the assay with A549; in assay [4]) was over 50 µM throughout. The IC50 in the assay with HeLa is over 50 µM.

As for `C/C(=C\c1cc(C2=CCCC2)co1)C(N)=O`, the IC50 is over 50 µM in assay [1]; over 50 µM in assay [2]; 15 µM in the assay with MCF7; 49.3 µM in assay [3]; 16.6 µM in the assay with A549; over 50 µM in assay [4]. The half-maximal inhibitory concentration (IC50) with HeLa stood at 17.6 µM.

As to `C/C(=C\c1cc(-c2ccccc2C)cs1)C(N)=O`, the concentration for half-maximal inhibition (IC50) was over 50 µM in assay [1]; over 50 µM in assay [2]; 4.92 µM with MCF7; over 50 µM in assay [3]; over 50 µM in the assay with A549; 15.2 µM in assay [4]. Further, the IC50 with HeLa was 19.4 µM.

With `C/C(=C\c1cc(-c2ccc(F)cc2)co1)C(N)=O`, the IC50 in assay [1] was over 50 µM; in assay [2] it was over 50 µM; in the assay on MCF7, 2.21 µM; in assay [3] it was over 50 µM; with A549, 14.9 µM; in assay [4] it was over 50 µM. Further, in the assay on HeLa, the IC50 amounted to 11.8 µM.

Regarding `C/C(=C\c1cc(-c2ccccc2)cs1)C(N)=O`, the concentration for half-maximal inhibition (IC50) was over 50 µM in assay [1]; over 50 µM in assay [2]; 2.68 µM with MCF7; over 50 µM in assay [3]; over 50 µM with A549; over 50 µM in assay [4]. Besides, the IC50 with HeLa turned out to be 12.7 µM.

As to `C/C(=C\c1cc(-c2ccc(C)cc2)co1)C(N)=O`, the IC50 is over 50 µM in assay [1]; over 50 µM in assay [2]; 1.63 µM in the assay with MCF7; over 50 µM in assay [3]; over 50 µM with A549; 24.2 µM in assay [4]. Further, the IC50 in the assay with HeLa turned out to be 12 µM.

Take `C/C(=C\c1cc(-c2ccc([N+](=O)[O-])cc2)cs1)C(N)=O`: the IC50 in assay [1] was over 50 µM; in assay [2], over 50 µM; in the assay on MCF7, 1.21 µM; in assay [3] it was over 50 µM; with A549 it was 3.5 µM; in assay [4], 2.38 µM. In the assay on HeLa, the IC50 stood at 2.9 µM.

Take `C/C(=C\c1nc(-c2ccccc2)cs1)C(N)=O`: the IC50 in assay [1] was over 50 µM; in assay [2], over 50 µM; in the assay with MCF7 it was 2.38 µM; in assay [3], over 50 µM; with A549, over 50 µM; in assay [4], 3.78 µM. Also, in the assay on HeLa, the concentration for half-maximal inhibition (IC50) turned out to be 2.77 µM.

As to `C/C(=C\c1cc(-c2ccc(F)nc2)co1)C(N)=O`, the IC50 in assay [1] is over 50 µM; in assay [2] it was over 50 µM; in the assay with MCF7, 14.1 µM; in assay [3], over 50 µM; in the assay with A549, over 50 µM; in assay [4], 30 µM. The IC50 in the assay on HeLa was over 50 µM.

For the compound `C/C(=C\c1cccc(-c2ccc(C)cc2)c1)C(N)=O`, the IC50 is over 50 µM in assay [1]; 7.65 µM in assay [2]; 6.71 µM with MCF7; over 50 µM in assay [3]; 5.1 µM in the assay with A549; 26.8 µM in assay [4]. The IC50 with HeLa was 24.8 µM.

For `C/C(=C\c1cc(-c2cccnc2)co1)C(N)=O`, the IC50 in assay [1] is over 50 µM; in assay [2] it was over 50 µM; in the assay on MCF7, 13.2 µM; in assay [3], over 50 µM; in the assay on A549, 6.62 µM; in assay [4] it was 8.64 µM. The IC50 in the assay with HeLa was over 50 µM.

As to `COc1ccc(-c2csc(/C=C(\C)C(N)=O)c2)cc1`, the IC50 (in assay [1]; in assay [2]; in the assay with MCF7; in assay [3]; in the assay on A549; in assay [4]) was over 50 µM in each case. Moreover, the IC50 in the assay with HeLa is over 50 µM.

Regarding `C/C(=C\c1nc(-c2ccc(C)cc2)cs1)C(N)=O`, the IC50 (in assay [1]; in assay [2]; in the assay with MCF7; in assay [3]; with A549; in assay [4]) was over 50 µM in each case. In addition, the IC50 with HeLa stood at 25 µM.

Regarding `C/C(=C\c1cc(-c2ccc(C)nc2)co1)C(N)=O`, the IC50 was over 50 µM in assay [1]; over 50 µM in assay [2]; 10.2 µM in the assay with MCF7; over 50 µM in assay [3]; over 50 µM in the assay on A549; over 50 µM in assay [4]. The IC50 in the assay with HeLa is over 50 µM.

`C/C(=C\c1cccc(-c2ccccc2)c1)C(N)=O`: the IC50 in assay [1] is over 50 µM; in assay [2] it was over 50 µM; in the assay with MCF7 it was 6.54 µM; in assay [3], over 50 µM; in the assay on A549, over 50 µM; in assay [4], 12.6 µM. Also, in the assay on HeLa, the IC50 is 15.7 µM.

For the compound `C/C(=C\c1cc(-c2ccc(C(F)(F)F)cc2)cs1)C(N)=O`, the IC50 was over 50 µM in assay [1]; over 50 µM in assay [2]; 50 µM in the assay with MCF7; over 50 µM in assay [3]; over 50 µM in the assay on A549; over 50 µM in assay [4]. Also, the half-inhibitory concentration (IC50) in the assay with HeLa is over 50 µM.

With `C/C(=C\c1cc(-c2ccc(F)cc2)cs1)C(N)=O`, the IC50 is over 50 µM in assay [1]; over 50 µM in assay [2]; 1.44 µM in the assay with MCF7; over 50 µM in assay [3]; over 50 µM in the assay on A549; over 50 µM in assay [4]. Also, the IC50 with HeLa was 20.8 µM.

On to `C=Cc1ccc(-c2csc(/C=C(\C)C(N)=O)c2)cc1`, for which the IC50 (in assay [1]; in assay [2]; in the assay with MCF7; in assay [3]; in the assay with A549; in assay [4]) was over 50 µM each time. Moreover, the IC50 with HeLa is over 50 µM.

On to `C/C(=C\c1cc(-c2ccc(C#N)cc2)cs1)C(N)=O`, for which the IC50 in assay [1] was over 50 µM; in assay [2], over 50 µM; in the assay on MCF7, 0.24 µM; in assay [3] it was over 50 µM; with A549 it was over 50 µM; in assay [4], 0.13 µM. Besides, in the assay on HeLa, the IC50 was determined as 0.25 µM.
